Experimental data reported in ChEMBL document CHEMBL1153245, “A profile of the in vitro anti-tumor activity of imidazolium-based ionic liquids” (2010).

Tests used:
Type in all cases: functional
SNB-19 = experiment: Anticancer activity against human SNB19 cells assessed cell growth at 10 uM after 48 hrs by sulforhodamine B assay relative to control
OVCAR-4 = experiment: Anticancer activity against human OVCAR4 cells assessed cell growth at 10 uM after 48 hrs by sulforhodamine B assay relative to control
HOP-62 = experiment: Anticancer activity against human HOP62 cells assessed cell growth at 10 uM after 48 hrs by sulforhodamine B assay relative to control
U-251 = experiment: Anticancer activity against human U251 cells assessed cell growth at 10 uM after 48 hrs by sulforhodamine B assay relative to control
SK-MEL-2 = experiment: Anticancer activity against human SK-MEL-2 cells assessed cell growth at 10 uM after 48 hrs by sulforhodamine B assay relative to control
OVCAR-8 = experiment: Anticancer activity against human OVCAR8 cells assessed cell growth at 10 uM after 48 hrs by sulforhodamine B assay relative to control
OVCAR-3 = experiment: Anticancer activity against human OVCAR-3 cells assessed cell growth at 10 uM after 48 hrs by sulforhodamine B assay relative to control
M14 = experiment: Anticancer activity against human M14 cells assessed cell growth at 10 uM after 48 hrs by sulforhodamine B assay relative to control
SR = experiment: Anticancer activity against human SR cells assessed cell growth at 10 uM after 48 hrs by sulforhodamine B assay relative to control
COLO 205 = experiment: Anticancer activity against human COLO205 cells assessed cell growth at 10 uM after 48 hrs by sulforhodamine B assay relative to control
IGROV-1 = experiment: Anticancer activity against human IGROV1 cells assessed cell growth at 10 uM after 48 hrs by sulforhodamine B assay relative to control
UACC-257 = experiment: Anticancer activity against human UACC257 cells assessed cell growth at 10 uM after 48 hrs by sulforhodamine B assay relative to control
NCI-H522 = experiment: Anticancer activity against human NCI-H522 cells assessed cell growth at 10 uM after 48 hrs by sulforhodamine B assay relative to control
HOP-92 = experiment: Anticancer activity against human HOP92 cells assessed cell growth at 10 uM after 48 hrs by sulforhodamine B assay relative to control
HCT-116 = experiment: Anticancer activity against human HCT116 cells assessed cell growth at 10 uM after 48 hrs by sulforhodamine B assay relative to control
MDA-MB-468 = experiment: Anticancer activity against human MDA-MB-468 cells assessed cell growth at 10 uM after 48 hrs by sulforhodamine B assay relative to control
NCI-H460 = experiment: Anticancer activity against human NCI-H460 cells assessed cell growth at 10 uM after 48 hrs by sulforhodamine B assay relative to control
TK-10 = experiment: Anticancer activity against human TK10 cells assessed cell growth at 10 uM after 48 hrs by sulforhodamine B assay relative to control
BT-549 = experiment: Anticancer activity against human BT549 cells assessed cell growth at 10 uM after 48 hrs by sulforhodamine B assay relative to control
SF-268 = experiment: Anticancer activity against human SF268 cells assessed cell growth at 10 uM after 48 hrs by sulforhodamine B assay relative to control
SK-OV-3 = experiment: Anticancer activity against human SKOV3 cells assessed cell growth at 10 uM after 48 hrs by sulforhodamine B assay relative to control
HT-29 = experiment: Anticancer activity against human HT-29 cells assessed cell growth at 10 uM after 48 hrs by sulforhodamine B assay relative to control
HCT-15 = experiment: Anticancer activity against human HCT15 cells assessed cell growth at 10 uM after 48 hrs by sulforhodamine B assay relative to control
HL-60(TB) = experiment: Anticancer activity against human HL-60(TB) cells assessed cell growth at 10 uM after 48 hrs by sulforhodamine B assay relative to control
LOX IMVI = experiment: Anticancer activity against human LOXIMVI cells assessed cell growth at 10 uM after 48 hrs by sulforhodamine B assay relative to control
SK-MEL-28 = experiment: Anticancer activity against human SK-MEL-28 cells assessed cell growth at 10 uM after 48 hrs by sulforhodamine B assay relative to control
DU-145 = experiment: Anticancer activity against human DU145 cells assessed cell growth at 10 uM after 48 hrs by sulforhodamine B assay relative to control
A549 = experiment: Anticancer activity against human A549 cells assessed cell growth at 10 uM after 48 hrs by sulforhodamine B assay relative to control
NCI/ADR-RES = experiment: Anticancer activity against human NCI/ADR-RES cells assessed cell growth at 10 uM after 48 hrs by sulforhodamine B assay relative to control
[1] = Anticancer activity against human RPMI8266 cells assessed cell growth at 10 uM after 48 hrs by sulforhodamine B assay relative to control
SF-295 = experiment: Anticancer activity against human SF295 cells assessed cell growth at 10 uM after 48 hrs by sulforhodamine B assay relative to control
CCRF-CEM = experiment: Anticancer activity against human CCRF-CEM cells assessed cell growth at 10 uM after 48 hrs by sulforhodamine B assay relative to control
T47D = experiment: Anticancer activity against human T47D cells assessed cell growth at 10 uM after 48 hrs by sulforhodamine B assay relative to control
ACHN = experiment: Anticancer activity against human ACHN cells assessed cell growth at 10 uM after 48 hrs by sulforhodamine B assay relative to control
CAKI-1 = experiment: Anticancer activity against human Caki1 cells assessed cell growth at 10 uM after 48 hrs by sulforhodamine B assay relative to control
NCI-H226 = experiment: Anticancer activity against human NCI-H226 cells assessed cell growth at 10 uM after 48 hrs by sulforhodamine B assay relative to control
PC-3 = experiment: Anticancer activity against human PC3 cells assessed cell growth at 10 uM after 48 hrs by sulforhodamine B assay relative to control
A498 = experiment: Anticancer activity against human A498 cells assessed cell growth at 10 uM after 48 hrs by sulforhodamine B assay relative to control
UO-31 = experiment: Anticancer activity against human UO31 cells assessed cell growth at 10 uM after 48 hrs by sulforhodamine B assay relative to control
MDA-MB-435 = experiment: Anticancer activity against human MDA-MB-435 cells assessed cell growth at 10 uM after 48 hrs by sulforhodamine B assay relative to control
KM12 = experiment: Anticancer activity against human KM12 cells assessed cell growth at 10 uM after 48 hrs by sulforhodamine B assay relative to control
HCC 2998 = experiment: Anticancer activity against human HCC2998 cells assessed cell growth at 10 uM after 48 hrs by sulforhodamine B assay relative to control
K562 = experiment: Anticancer activity against human K562 cells assessed cell growth at 10 uM after 48 hrs by sulforhodamine B assay relative to control

Compound: CCCCCCCCCCCCCCCCCC[n+]1ccn(C)c1.O=S(=O)([N-]S(=O)(=O)C(F)(F)F)C(F)(F)F
- Activity (SNB-19): -68%
- Activity (OVCAR-4): -13.29%
- Activity (HOP-62): -74.14%
- Activity (U-251): -63.9%
- Activity (SK-MEL-2): -51.69%
- Activity (OVCAR-8): -37.35%
- Activity (OVCAR-3): -56.27%
- Activity (M14): -30.74%
- Activity (SR): 19%
- Activity (COLO 205): -47.26%
- Activity (IGROV-1): -43.09%
- Activity (UACC-257): -47.9%
- Activity (NCI-H522): -74.3%
- Activity (HOP-92): -66.2%
- Activity (HCT-116): -51.46%
- Activity (MDA-MB-468): -20.4%
- Activity (NCI-H460): -51.32%
- Activity (TK-10): -72.43%
- Activity (BT-549): -54.97%
- Activity (SF-268): -45.26%
- Activity (SK-OV-3): -9.16%
- Activity (HT-29): -36.79%
- Activity (HCT-15): -54.83%
- Activity (HL-60(TB)): 2.22%
- Activity (LOX IMVI): -52.24%
- Activity (SK-MEL-28): -52.79%
- Activity (DU-145): -8.63%
- Activity (A549): -47.24%
- Activity (NCI/ADR-RES): -7.98%
- Activity [1]: 75.58%
- Activity (SF-295): -21.51%
- Activity (CCRF-CEM): 67.84%
- Activity (T47D): 16.98%
- Activity (ACHN): -43.53%
- Activity (CAKI-1): -78.63%
- Activity (NCI-H226): -61.74%
- Activity (PC-3): -62.3%
- Activity (A498): -44.9%
- Activity (UO-31): -66.09%
- Activity (MDA-MB-435): -70.83%
- Activity (KM12): -61.9%
- Activity (HCC 2998): -80.86%
- Activity (K562): 17.9%

Compound: COCC[n+]1ccn(C)c1.O=S(=O)([N-]S(=O)(=O)C(F)(F)F)C(F)(F)F
- Activity (SNB-19): 93.88%
- Activity (OVCAR-4): 105.25%
- Activity (HOP-62): 93.93%
- Activity (U-251): 91.58%
- Activity (SK-MEL-2): 93.96%
- Activity (OVCAR-8): 96.68%
- Activity (OVCAR-3): 116.33%
- Activity (M14): 110.1%
- Activity (SR): 116.69%
- Activity (COLO 205): 130.61%
- Activity (IGROV-1): 77.53%
- Activity (UACC-257): 100.25%
- Activity (NCI-H522): 84.3%
- Activity (HOP-92): 71.88%
- Activity (HCT-116): 102.12%
- Activity (MDA-MB-468): 106.36%
- Activity (NCI-H460): 108.75%
- Activity (TK-10): 123.77%
- Activity (BT-549): 96.44%
- Activity (SF-268): 107.22%
- Activity (SK-OV-3): 107.49%
- Activity (HT-29): 111.85%
- Activity (HCT-15): 101.44%
- Activity (HL-60(TB)): 103.77%
- Activity (LOX IMVI): 92.96%
- Activity (SK-MEL-28): 106.63%
- Activity (DU-145): 99.43%
- Activity (A549): 101.69%
- Activity (NCI/ADR-RES): 100.1%
- Activity [1]: 62.23%
- Activity (SF-295): 112.28%
- Activity (CCRF-CEM): 55.66%
- Activity (T47D): 100.59%
- Activity (ACHN): 96.19%
- Activity (CAKI-1): 91.87%
- Activity (NCI-H226): 100.3%
- Activity (PC-3): 78.17%
- Activity (A498): 75.43%
- Activity (UO-31): 71.37%
- Activity (MDA-MB-435): 117.7%
- Activity (KM12): 105.57%
- Activity (HCC 2998): 101.04%
- Activity (K562): 109.67%

Compound: CCCCCCCCCCCCCCCC[n+]1ccn(C)c1.[Cl-]
- Activity (SNB-19): -75.88%
- Activity (OVCAR-4): -54.83%
- Activity (HOP-62): -82.71%
- Activity (U-251): -69.96%
- Activity (SK-MEL-2): -64.47%
- Activity (OVCAR-8): -53.71%
- Activity (OVCAR-3): -24.76%
- Activity (M14): -73.7%
- Activity (SR): 15.17%
- Activity (COLO 205): -45.99%
- Activity (IGROV-1): -67.13%
- Activity (UACC-257): -61.13%
- Activity (NCI-H522): -87.38%
- Activity (HOP-92): -80.2%
- Activity (HCT-116): -87.23%
- Activity (MDA-MB-468): -78.99%
- Activity (NCI-H460): -87.94%
- Activity (TK-10): -80.37%
- Activity (BT-549): -65.21%
- Activity (SF-268): -22.98%
- Activity (SK-OV-3): -33.78%
- Activity (HT-29): -100%
- Activity (HCT-15): 9.85%
- Activity (HL-60(TB)): 45.73%
- Activity (LOX IMVI): -50.37%
- Activity (SK-MEL-28): -86.22%
- Activity (DU-145): -69.69%
- Activity (A549): -50.92%
- Activity (NCI/ADR-RES): 37.13%
- Activity [1]: 15.77%
- Activity (SF-295): -39.48%
- Activity (CCRF-CEM): 33.57%
- Activity (T47D): -0.13%
- Activity (ACHN): -0.6%
- Activity (CAKI-1): -83.54%
- Activity (NCI-H226): -60.54%
- Activity (PC-3): -100%
- Activity (A498): -65.31%
- Activity (UO-31): -85.85%
- Activity (MDA-MB-435): -55.77%
- Activity (KM12): -83.88%
- Activity (HCC 2998): -94.43%
- Activity (K562): 72.56%
